Test results published in ChEMBL document CHEMBL2434921, “New synthetic aliphatic sulfonamido-quaternary ammonium salts as anticancer chemotherapeutic agents” (2013).
The source made the active and inactive calls. The rule behind the calls is not given here.

Tests used:
NUGC-3 [1] = test: Growth inhibition of human NUGC3 cells after 48 hrs by SRB assay; type: functional; conditions: NUGC-3, 48 h
HCT-15 [2] = test: Growth inhibition of human HCT15 cells at 0.1 uM after 48 hrs by SRB assay; values are per cent of control; conditions: HCT-15, 48 h
NCI-H23 [3] = test: Growth inhibition of human NCI-H23 cells at 1 uM after 48 hrs by SRB assay; values are per cent of control; conditions: NCI-H23, 48 h
NCI-H23 [4] = test: Growth inhibition of human NCI-H23 cells at 0.1 uM after 48 hrs by SRB assay; values are per cent of control; conditions: NCI-H23, 48 h
NUGC-3 [5] = test: Growth inhibition of human NUGC3 cells at 10 uM after 48 hrs by SRB assay; values are per cent of control; conditions: NUGC-3, 48 h
NCI-H23 [6] = test: Growth of human NCI-H23 cells at 0.3 uM after 48 hrs by SRB assay; conditions: NCI-H23, 48 h
ACHN [7] = test: Growth inhibition of human ACHN cells at 3 uM after 48 hrs by SRB assay; values are per cent of control
NCI-H23 [8] = test: Growth of human NCI-H23 cells at 10 uM after 48 hrs by SRB assay; conditions: NCI-H23, 48 h
MDA-MB-231 [9] = test: Growth of human MDA-MB-231 cells at 1 uM after 48 hrs by SRB assay; conditions: MDA-MB-231, 48 h
PC-3 [10] = test: Growth inhibition of human PC3 cells after 48 hrs by SRB assay; type: functional; conditions: PC-3, 48 h
PC-3 [11] = test: Growth of human PC3 cells at 10 uM after 48 hrs by SRB assay; conditions: PC-3, 48 h
PC-3 [12] = test: Growth inhibition of human PC3 cells at 0.3 uM after 48 hrs by SRB assay; values are per cent of control; conditions: PC-3, 48 h
ACHN [13] = test: Growth of human ACHN cells at 0.3 uM after 48 hrs by SRB assay
NUGC-3 [14] = test: Growth of human NUGC3 cells at 1 uM after 48 hrs by SRB assay; conditions: NUGC-3, 48 h
HCT-15 [15] = test: Growth inhibition of human HCT15 cells at 10 uM after 48 hrs by SRB assay; values are per cent of control; conditions: HCT-15, 48 h
PC-3 [16] = test: Growth inhibition of human PC3 cells at 0.1 uM after 48 hrs by SRB assay; values are per cent of control; conditions: PC-3, 48 h
NUGC-3 [17] = test: Growth of human NUGC3 cells at 0.1 uM after 48 hrs by SRB assay; conditions: NUGC-3, 48 h
NUGC-3 [18] = test: Growth inhibition of human NUGC3 cells at 3 uM after 48 hrs by SRB assay; values are per cent of control; conditions: NUGC-3, 48 h
NCI-H23 [19] = test: Growth inhibition of human NCI-H23 cells after 48 hrs by SRB assay; type: functional; conditions: NCI-H23, 48 h
MDA-MB-231 [20] = test: Growth of human MDA-MB-231 cells at 0.1 uM after 48 hrs by SRB assay; conditions: MDA-MB-231, 48 h
ACHN [21] = test: Growth inhibition of human ACHN cells after 48 hrs by SRB assay; type: functional
PC-3 [22] = test: Growth inhibition of human PC3 cells at 1 uM after 48 hrs by SRB assay; values are per cent of control; conditions: PC-3, 48 h
MDA-MB-231 [23] = test: Growth of human MDA-MB-231 cells at 10 uM after 48 hrs by SRB assay; conditions: MDA-MB-231, 48 h
[24] = target: Rho-related GTP-binding protein RhoB (Homo sapiens) (UniProt P62745); test: Transactivation of RhoB (unknown origin) transfected in human HeLa cells at 5 uM measured over 10 secs by dual luciferase reporter gene assay; type: cell-based
HCT-15 [25] = test: Growth of human HCT15 cells at 0.3 uM after 48 hrs by SRB assay; conditions: HCT-15, 48 h
NCI-H23 [26] = test: Growth inhibition of human NCI-H23 cells at 3 uM after 48 hrs by SRB assay; values are per cent of control; conditions: NCI-H23, 48 h
HCT-15 [27] = test: Growth inhibition of human HCT15 cells at 1 uM after 48 hrs by SRB assay; values are per cent of control; conditions: HCT-15, 48 h
HCT-15 [28] = test: Growth inhibition of human HCT15 cells after 48 hrs by SRB assay; type: functional; conditions: HCT-15, 48 h
PC-3 [29] = test: Growth inhibition of human PC3 cells at 3 uM after 48 hrs by SRB assay; values are per cent of control; conditions: PC-3, 48 h
ACHN [30] = test: Growth of human ACHN cells at 0.1 uM after 48 hrs by SRB assay
ACHN [31] = test: Growth inhibition of human ACHN cells at 1 uM after 48 hrs by SRB assay; values are per cent of control
MDA-MB-231 [32] = test: Growth inhibition of human MDA-MB-231 cells at 0.3 uM after 48 hrs by SRB assay; values are per cent of control; conditions: MDA-MB-231, 48 h
MDA-MB-231 [33] = test: Growth of human MDA-MB-231 cells at 3 uM after 48 hrs by SRB assay; values are per cent of control; conditions: MDA-MB-231, 48 h
NUGC-3 [34] = test: Growth of human NUGC3 cells at 0.3 uM after 48 hrs by SRB assay; conditions: NUGC-3, 48 h
ACHN [35] = test: Growth of human ACHN cells at 10 uM after 48 hrs by SRB assay
HCT-15 [36] = test: Growth of human HCT15 cells at 3 uM after 48 hrs by SRB assay; conditions: HCT-15, 48 h
MDA-MB-231 [37] = test: Growth inhibition of human MDA-MB-231 cells after 48 hrs by SRB assay; type: functional; conditions: MDA-MB-231, 48 h

Rho-related GTP-binding protein RhoB (Homo sapiens), sequence (P62745 whole entry): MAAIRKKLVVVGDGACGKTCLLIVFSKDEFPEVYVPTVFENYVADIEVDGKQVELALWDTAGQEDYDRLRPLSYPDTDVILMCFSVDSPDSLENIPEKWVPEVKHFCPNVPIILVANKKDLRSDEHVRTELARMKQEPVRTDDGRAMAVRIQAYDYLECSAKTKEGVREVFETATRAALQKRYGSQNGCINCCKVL

| GI50 (PC-3 [10]) [nM] | GI50 (NCI-H23 [19]) [nM] | SMILES | GI50 (NUGC-3 [1]) [nM] | growth, % of control at 0.1 µM (HCT-15 [2]) [%] | growth, % of control at 1 µM (NCI-H23 [3]) [%] | growth, % of control at 0.1 µM (NCI-H23 [4]) [%] | growth, % of control at 10 µM (NUGC-3 [5]) [%] | growth, % of control at 0.3 µM (NCI-H23 [6]) [%] | growth, % of control at 3 µM (ACHN [7]) [%] | growth, % of control at 10 µM (NCI-H23 [8]) [%] | growth, % of control at 1 µM (MDA-MB-231 [9]) [%] | growth, % of control at 10 µM (PC-3 [11]) [%] | growth, % of control at 0.3 µM (PC-3 [12]) [%] | growth, % of control at 0.3 µM (ACHN [13]) [%] | growth, % of control at 1 µM (NUGC-3 [14]) [%] | growth, % of control at 10 µM (HCT-15 [15]) [%] | growth, % of control at 0.1 µM (PC-3 [16]) [%] | growth, % of control at 0.1 µM (NUGC-3 [17]) [%] | growth, % of control at 3 µM (NUGC-3 [18]) [%] | growth, % of control at 0.1 µM (MDA-MB-231 [20]) [%] | further results |
| --- | --- | --- | --- | --- | --- | --- | --- | --- | --- | --- | --- | --- | --- | --- | --- | --- | --- | --- | --- | --- | --- |
| 520 | 470 | CCCCCCCCCCCCCCS(=O)(=O)N(C)CC[N+](CC)(CC)CC | 320 | 95.3 | 39.8 | 97.3 | -1.3 | 90.1 | 48.6 | -5.6 | 54.2 | -11.5 | 102 | 94.5 | 20.9 | 36 | 103 | 92 | 7.9 | 96.4 | GI50 (ACHN [21]): 1460 nM; growth, % of control at 1 µM (PC-3 [22]): 41.4%; growth, % of control at 10 µM (MDA-MB-231 [23]): 17.2%; Activity [24]: Active; growth, % of control at 0.3 µM (HCT-15 [25]): 96.6%; growth, % of control at 3 µM (NCI-H23 [26]): 15%; growth, % of control at 1 µM (HCT-15 [27]): 87.1%; GI50 (HCT-15 [28]): 3460 nM; growth, % of control at 3 µM (PC-3 [29]): 0.9%; growth, % of control at 0.1 µM (ACHN [30]): 96.4%; growth, % of control at 1 µM (ACHN [31]): 68.7%; growth, % of control at 0.3 µM (MDA-MB-231 [32]): 95.3%; growth, % of control at 3 µM (MDA-MB-231 [33]): 34.1%; growth, % of control at 0.3 µM (NUGC-3 [34]): 83.8%; growth, % of control at 10 µM (ACHN [35]): 21.2%; growth, % of control at 3 µM (HCT-15 [36]): 72.5%; GI50 (MDA-MB-231 [37]): 870 nM |
| 470 | 2040 | CCCCCCCCCCCCCCS(=O)(=O)N(C)CC[N+](C)(C)C | 390 | 95.7 | 86.3 | 94.5 | 9 | 100 | 47.2 | 23.7 | 66.3 | -14.3 | 93.6 | 100 | 34.4 | 20.2 | 92 | 92.4 | 18.4 | 99.1 | GI50 (ACHN [21]): 1400 nM; growth, % of control at 1 µM (PC-3 [22]): 45.1%; growth, % of control at 10 µM (MDA-MB-231 [23]): 7.8%; Activity [24]: Active; growth, % of control at 0.3 µM (HCT-15 [25]): 97.5%; growth, % of control at 3 µM (NCI-H23 [26]): 59.1%; growth, % of control at 1 µM (HCT-15 [27]): 55.6%; GI50 (HCT-15 [28]): 750 nM; growth, % of control at 3 µM (PC-3 [29]): 11.4%; growth, % of control at 0.1 µM (ACHN [30]): 107%; growth, % of control at 1 µM (ACHN [31]): 71.6%; growth, % of control at 0.3 µM (MDA-MB-231 [32]): 98.2%; growth, % of control at 3 µM (MDA-MB-231 [33]): 35.3%; growth, % of control at 0.3 µM (NUGC-3 [34]): 84.5%; growth, % of control at 10 µM (ACHN [35]): 21.3%; growth, % of control at 3 µM (HCT-15 [36]): 26.9%; GI50 (MDA-MB-231 [37]): 920 nM |
